Holding throughout (type): physicochemical
Series [1] is described as follows: Relative volatility: N2 passed through the absorbent, condensate analysed by GC and Karl Fischer titration. Particulars: for Amine (in condensate) / Water (in condensate) / Condensate: 30 wt.-% aqueous solution, 50° C., 8 h; for Amine (in condensate) / Water (in condensate): 30 L (STP)/h N2; for Amine (in condensate): GC; for Water (in condensate): Karl Fischer titration; for Condensate: 200 mL, 30 L (STP)/h N2, condenser 5° C.; for Volatility (in words): 30 wt.-% aqueous solutions. On the procedure: The volatility of amines TBAP-MPIP and TBAE-MPIP in 30 wt.-% aqueous solutions was compared to that of amines M3ETB, MDEA and TBAEPY in 30% wt.-% aqueous solutions.
A glass condenser, which was operated at 5° C., was attached to a glass cylinder with a thermostated jacket. The glass cylinder was thermostated to 50° C., and 200 mL of the absorbent were introduced for each test. Over an experimental duration of 8 h, 30 L (STP)/h of N2 were passed through the absorbent at ambient pressure. For each amine, the test was conducted three times. The condensate was analyzed by means of GC and Karl Fischer titration.

The nature of series [2]: Acid gas loading capacity: CO2 loading and stripping experiment. The conditions noted are these: for CO2 loading after loading / CO2 loading after stripping / Cyclic CO2 capacity: 30 wt.-% amine in water; for CO2 loading after loading: 40° C., ambient pressure, 8 L (STP)/h CO2, about 4 h; for CO2 loading after stripping: stripping at 80° C. with N2 8 L (STP)/h, 60 min; for Cyclic CO2 capacity: difference of loading after loading and after stripping; for Acid gas loading capacities (in words): CO2 and H2S, absorbents 30 wt.-% in water, compared with TBAEE and MDEA. The protocol: (§1) A loading experiment and subsequently a stripping experiment were conducted. A glass condenser, which was operated at 5° C., was attached to a glass cylinder with a thermostated jacket. Condensate obtained in the course of the experiment was returned to the glass cylinder so as to prevent distortion of the test results by partial evaporation of the absorbent.
(§2) The glass cylinder was initially charged with about 100 mL of unladen absorbent (30% by weight of amine in water). To determine the absorption capacity, at ambient pressure and 40° C., 8 L (STP)/h of CO2 or H2S were passed through the absorption liquid via a frit over a period of about 4 h. Subsequently, the loading of CO2 or H2S was determined as follows:
(§3) The determination of H2S was effected by titration with silver nitrate solution. For this purpose, the sample to be analyzed was weighed into an aqueous solution together with about 2% by weight of sodium acetate and about 3% by weight of ammonia. Subsequently, the H2S content was determined by a potentiometric turning point titration by means of silver nitrate. At the turning point, H2S is fully bound as Ag2S. The CO2 content was determined as total inorganic carbon (TOC-V Series Shimadzu).
(§4) The laden solution was stripped by heating an identical apparatus setup to 80° C., introducing the laden absorbent and stripping it by means of an N2 stream (8 L (STP)/h). After 60 min, a sample was taken and the CO2 or H2S loading of the absorbent was determined as described above.
(§5) The difference in the loading at the end of the loading experiment and the loading at the end of the stripping experiment gives the respective cyclic capacity.

Series [3] is described as follows: Acid gas loading capacity: H2S loading and stripping experiment. Particulars: for H2S loading after loading / H2S loading after stripping / Cyclic H2S capacity: 30 wt.-% amine in water; for H2S loading after loading: 40° C., ambient pressure, 8 L (STP)/h H2S, about 4 h; for H2S loading after stripping: stripping at 80° C. with N2 8 L (STP)/h, 60 min; for Cyclic H2S capacity: difference of loading after loading and after stripping. On the procedure: as §1, §2, §3, §4, §5

The nature of series [4]: pKA value by titration with hydrochloric acid. The conditions noted are these: for Second pKA value (in words) / pKa: 20° C.; for pKa: aqueous solution, aqueous solution 0.005 mol amine per liter, HCl 0.1 mol/L; for First pKA value (in words): at relatively low temperatures (20° C.).
The nature of series [5]: Thermal stability of aqueous amine solutions with and without acid gas loading. The conditions noted are these: 150° C., 125 h; for Ratio of Degradation Without Acid Gas Loading: closed cylinder, amine concentration by GC before and after; for Ratio of Degradation Without Acid Gas Loading / Ratio of Degradation With Acid Gas Loading: in water: MDEA 40, TBAP-MPIP 30, TBAE-MPIP 25, DEAE-EPIP 30 wt.-%; for Ratio of Degradation With Acid Gas Loading: 20 m^3 (STP)/tsolvent CO2 and 20 m^3 (STP)/tsolvent H2S. On the procedure:
The thermal stability of TBAP-MPIP (30 wt.-% in water) and TBAE-MPIP (25 wt.-% in water) was compared to both MDEA (40 wt.-% MDEA in water) and DEAE-EPIP (30 wt.-% DEAE-EPIP in water) with and without acid gas loading.
A cylinder (10 mL) was initially charged with the respective solution (8 mL) and the cylinder was closed. […] In the experiments conducted under acid gas loading, the acid gas loading of the solutions was 20 m^3 (STP)/tsolvent of CO2 and 20 m^3 (STP)/tsolvent of H2S. The decomposition level of the amines was calculated from the amine concentration measured by gas chromatography before and after the experiment.

The structures appear in SMILES notation. Like-named read-outs stand apart in the source and are kept apart here.

The term pKa denotes the negative logarithm of the acid dissociation constant.

Turning to `COCCOCCOCCNC(C)(C)C` [M3ETB, (2-(2-(2-tert-butylaminoethoxy)ethoxy)ethyl)methyl ether, reference compound], in series [1], the “Amine (in condensate)” value was determined as 0.7 wt %, the “Water (in condensate)” value amounted to 99.2 wt % and the Condensate is 30.1 mL.

For `CN1CCN(CCCNC(C)(C)C)CC1` [TBAP-MPIP, 3-(4-methylpiperazin-1-yl)propyl-tert-butylamine], in series [1], the “Amine (in condensate)” value was 0.3 wt %, the “Water (in condensate)” value is 99.7 wt %, the Condensate is 30.3 mL and the “Volatility (in words)” value is “suitably low volatility”. Besides, in series [2], the “CO2 loading after loading” value is recorded as 1.41 mol CO2/molamine; the “CO2 loading after stripping” value was 0.70 mol CO2/molamine; the “Cyclic CO2 capacity” value is 0.71 mol CO2/molamine; the “Acid gas loading capacities (in words)” value was “significantly higher acid gas loading capacities than absorbents based on TBAEE and MDEA”. In series [3], the “H2S loading after loading” value was 1.48 mol H2S/molamine, the “H2S loading after stripping” value is listed as 0.33 mol H2S/molamine and the “Cyclic H2S capacity” value is 1.15 mol H2S/molamine. Also, in series [4], the “Second pKA value (in words)” value was “close to the pKa value of MDEA” and the “First pKA value (in words)” value is listed as “high first pKA values”. The pKa in series [4] (read-out: pKA 1) is 10.7. Besides, the pKa in series [4] (read-out: pKA 2) was found to be 7.68. Besides, the pKa in series [4] (read-out: pKA 3) came to 5.8. In series [5], the “Stability in aqueous solutions (in words)” value was “comparable to MDEA, and higher than DEAE-EPIP”; the “Ratio of Degradation Without Acid Gas Loading” value came out at 0.99; the “Ratio of Degradation With Acid Gas Loading” value was 0.91.

In the case of `CC(C)(C)NCCOCCO` [TBAEE, 2-(2-tert-butylaminoethoxy)ethanol, reference compound], in series [2], the “CO2 loading after loading” value is on record as 0.97 mol CO2/molamine, the “CO2 loading after stripping” value is reported as 0.24 mol CO2/molamine and the “Cyclic CO2 capacity” value came to 0.73 mol CO2/molamine.

Regarding `CC(C)(C)NCCN1CCCC1=O` [TBAEPY, 1-[2-(tert-butylamino)ethyl]pyrrolidin-2-one, reference compound], in series [1], the “Amine (in condensate)” value was 0.2 wt %, the “Water (in condensate)” value was found to be 99.5 wt % and the Condensate is 28.8 mL.

For `CN1CCN(CCNC(C)(C)C)CC1` [TBAE-MPIP, 2-(4-methylpiperazin-1-yl)ethyl-tert-butylamine], in series [1], the “Amine (in condensate)” value stood at 0.7 wt %, the “Water (in condensate)” value turned out to be 99.3 wt %, the Condensate turned out to be 29.28 mL and the “Volatility (in words)” value is “suitably low volatility”. Moreover, in series [2], the “CO2 loading after loading” value is reported as 1.46 mol CO2/molamine; the “CO2 loading after stripping” value stood at 0.22 mol CO2/molamine; the “Cyclic CO2 capacity” value worked out at 1.24 mol CO2/molamine; the “Acid gas loading capacities (in words)” value is “significantly higher acid gas loading capacities than absorbents based on TBAEE and MDEA”. Besides, in series [3], the “H2S loading after loading” value is listed as 1.62 mol H2S/molamine, the “H2S loading after stripping” value is listed as 0.35 mol H2S/molamine and the “Cyclic H2S capacity” value was determined as 1.27 mol H2S/molamine. Further, in series [4], the “Second pKA value (in words)” value is “close to the pKa value of MDEA” and the “First pKA value (in words)” value is listed as “high first pKA values”. Moreover, in series [4] (read-out: pKA 1), the pKa was found to be 10. In addition, the pKa in series [4] (read-out: pKA 2) came to 8.82. In series [4] (read-out: pKA 3), the pKa is 5.47. In series [5], the “Stability in aqueous solutions (in words)” value is “comparable to MDEA, and higher than DEAE-EPIP”; the “Ratio of Degradation Without Acid Gas Loading” value was 1.00; the “Ratio of Degradation With Acid Gas Loading” value is given as 0.88.

Regarding `CCN(CC)CCN1CCN(CC)CC1` [DEAE-EPIP, 2-(4-ethylpiperazin-1-yl)ethyl-diethylamine, reference compound], in series [2], the “CO2 loading after loading” value was 1.48 mol CO2/molamine, the “CO2 loading after stripping” value is recorded as 0.13 mol CO2/molamine and the “Cyclic CO2 capacity” value came out at 1.35 mol CO2/molamine. Moreover, in series [3], the “H2S loading after loading” value is 0.98 mol H2S/molamine, the “H2S loading after stripping” value amounted to 0.31 mol H2S/molamine and the “Cyclic H2S capacity” value was 0.67 mol H2S/molamine. Besides, the “Cyclic H2S capacity (in words)” value in series [3] (30 wt.-% in water, comparison with TBAP-MPIP and TBAE-MPIP) is “significantly lower than the capacity of both TBAP-MPIP and TBAE-MPIP”. Besides, the pKa in series [4] (read-out: pKA 1) was determined as 10.3. The pKa in series [4] (read-out: pKA 2) was 8.61. Further, the pKa in series [4] (read-out: pKA 3) worked out at 6.2. In addition, in series [5], the “Ratio of Degradation Without Acid Gas Loading” value came to 1.00 and the “Ratio of Degradation With Acid Gas Loading” value is 0.77.

These data come from US12138583B2, “Process for removal of acid gases from a fluid stream with a liquid absorbent comprising a piperazine ring” (BASF SE, priority 2019, dated 2024).
